Several values for one entry are separate records, joined by “and”; a condition that tells them apart may be missing. Equal entries are not always repeated.

D(2) dopamine receptor, sequence (P61169 whole entry): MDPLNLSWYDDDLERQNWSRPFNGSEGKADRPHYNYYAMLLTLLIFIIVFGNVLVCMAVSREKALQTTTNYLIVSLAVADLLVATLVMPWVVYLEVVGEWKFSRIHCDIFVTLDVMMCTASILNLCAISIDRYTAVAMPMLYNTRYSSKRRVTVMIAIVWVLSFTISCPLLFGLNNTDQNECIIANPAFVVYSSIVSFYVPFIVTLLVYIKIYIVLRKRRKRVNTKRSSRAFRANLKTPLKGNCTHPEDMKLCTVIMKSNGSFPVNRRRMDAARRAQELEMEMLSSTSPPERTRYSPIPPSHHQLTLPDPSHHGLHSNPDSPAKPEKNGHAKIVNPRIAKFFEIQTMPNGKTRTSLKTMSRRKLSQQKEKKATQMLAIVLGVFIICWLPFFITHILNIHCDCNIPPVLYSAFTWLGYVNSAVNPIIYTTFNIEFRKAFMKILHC

The test addresses D(2) dopamine receptor (Rattus norvegicus, UniProt P61169).
As a reminder, the Ki is a measure of affinity in units of concentration, obtained from inhibition or displacement. Higher therefore signals lower affinity. Take `NC1CCc2cc(O)c(O)cc2C1` (centres undefined): the Ki is 0.0061 µM and 0.024 µM.
Take `CC(C)C[C@H]1C(=O)N2CCC[C@H]2[C@]2(O)O[C@](NC(=O)[C@@H]3C=C4c5cccc6[nH]c(Br)c(c56)C[C@H]4N(C)C3)(C(C)C)C(=O)N12` [Bromocriptine+ (GTP+)]: the Ki is 0.083 µM and 0.054 µM.
As for `CN(C)CCCSc1ccccc1NC(=O)/C=C/c1ccccc1` [CINANSERIN], the Ki is over 10 µM.
`O=C(O)c1ccccc1C(=O)Nc1cccc2ccccc12` [NPA,(+)] had a Ki of 0.0048 µM.

These data come from BindingDB's records for PubMed 1356154 (Dupont Pharmaceuticals, 1992).
